From patent publication US8765396B2, “Method of screening a test agent for activity to modulate an oxidative demethylation enzyme” (Arbor Assays LLC, priority 2009, dated 2014) come the findings set out here.

The test has as its target T1, human histone demethylase JMJD2A (catalytic domain, residues 1-350) (Homo sapiens, UniProt O75164).
T1 construct: recombinantly produced catalytic domain, residues 1-350, of the human histone demethylase JMJD2A
T1 sequence (O75164 1-350): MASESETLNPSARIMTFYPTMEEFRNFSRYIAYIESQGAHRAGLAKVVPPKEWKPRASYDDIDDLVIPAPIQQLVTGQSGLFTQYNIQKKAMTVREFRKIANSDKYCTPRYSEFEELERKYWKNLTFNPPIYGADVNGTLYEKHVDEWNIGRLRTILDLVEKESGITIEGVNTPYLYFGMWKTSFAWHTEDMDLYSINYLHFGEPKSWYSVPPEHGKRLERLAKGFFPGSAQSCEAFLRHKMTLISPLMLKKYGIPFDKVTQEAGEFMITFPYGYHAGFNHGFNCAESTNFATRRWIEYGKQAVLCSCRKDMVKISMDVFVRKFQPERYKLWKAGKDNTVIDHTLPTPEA
Briefly: Jumonji type histone demethylase (JMJD2A) activity assay with Luminos reagent formaldehyde fluorescence detection. The note with it: 1.0 mM NOG; 0.5 mM 2-OG, 0.3 mM H3K9me3 peptide, 5 μM JMJD2A, 37° C., 30 minutes; triplicate. It counts as biochemical. The method, then:
A series of demethylase assays with Luminos reagent are performed. These assays are conducted with recombinantly produced catalytic domain, residues 1-350, of the human histone demethylase JMJD2A that demethylates the trimethylated forms of Lys9 and Lys36 in histone H3.
A positive control assay is performed using a 100 microliter assay cocktail of 20 mM HEPES pH 7.5, 50 mM NaCl, 1 mM Sodium Ascorbate, 0.05 mM FeSO4, and 5 μM JMJD2A. The assay is initiated by the addition of the cofactor 2-oxoglutarate (2-OG, 0.5 mM) and a 15-residue histone H3 trimethylated Lys9 (H3K9me3) substrate peptide (0.3 mM, H2N-[…](tri-methyl)STGGKA-amide) (SEQ ID NO. 1).
Three negative control reactions are performed in which 2-OG, the H3K9me3 peptide, and JMJD2A are omitted, respectively. […] Specifically, reactions are performed with 1.0 mM N-oxalylglycine (NOG), a competitive inhibitor of 2-OG, and desferoxamine (0.2 mM), a potent Fe(II) chelator that inhibits the oxidative reaction catalyzed by Fe(II)-dependent JmjC demethylases. […] Fifty microliters of the Luminos reagent solution prepared as described in Example 1 is then added to each reaction and the fluorescence is allowed to develop at 37° C. for 30 minutes. The fluorescence of the formaldehyde-Luminos reagent adduct is measured at 510 nm using an excitation wavelength of 440 nm with a Tecan Safire 2 microplate reader. […]

As for `O=C(O)CNC(=O)C(=O)O` [NOG, N-oxalylglycine], the “diminishes fluorescence in comparison to the positive control assay” value is given as “two-fold”.
